From patent US7799758B2, “Peptides and peptide derivatives as well as pharmaceutical compositions containing the same” (priority 2006, dated 2010)
No end group written: not given here.

System: mouse-adapted Dengue virus (DEN-2, strain P23085)
Test: model of Dengue virus infection in mice
Assay type: in vivo
Conditions: BALB/c mice infected s.c. with DEN-2 at 1-2 LD50, 4.8 mg/kg/day i.m. once a day for 5 days from day 3, read at day 10, p < 0.05
Experimental: A further possibility for establishing the biological effect in vivo is the reduction or complete suppression of mortality because of an infection with haemolytic viruses or bacteria. For this purpose, mice are, as described in Example 8, for instance infected with a dose of Dengue viruses, wherein 50% of the animals die within a period of 5-20 days after infection. The inventive compounds bring about a reduction of this mortality at a dose ranging from 0.001 to 500 mg/kg body weight, preferably at a dose ranging from […] body weight.
The biological effect of the compound of Example 3 was established in a model of Dengue virus infection in mice. 5-week-old male BALB/c mice were divided into 2 groups. All animals were infected subcutaneously with a mouse-adapted Dengue virus (DEN-2, strain P23085 at a dose of 1-2 LD50. 15 mice received 0.1 ml of 0.8% saline as intramuscular injection (control). The treated animals received 4.8 mg/kg/day of the agent of Example 3 as an intramuscular injection (diluted in 0.1 ml of 0.8% saline) once a day for 5 days, starting on day 3 after the virus infection.
At the end of the treatment period (day 10) the survival rates were compared.

## Gly-His-Arg-Pro-Leu-Asp-Lys-Lys-Arg-Glu-Glu-Ala-Pro-Ser-Leu-Arg-Pro-Ala-Pro-Pro-Pro-Ile-Ser-Gly-Gly-Gly-Tyr-Arg-Cys-(S-succinimido-PEG20K)-amide (GHRPLDKKREEAPSLRPAPPPISGGGYRC(succinimido‑PEG20K)-NH2) [Example 3]
  Mortality Percentage: 0%
dead/total animals
  Mortality: 0/10
